# Data reported in patent US20230349008A1, “PAPER-BASED SAMPLE TESTING DEVICES AND METHODS THEREOF” (CORNELL UNIVERSITY, priority 2020, published 2023).
# Assays:
# E. coli ATCC-25922 [1] = settings: vendor MIC interpretation; cited from earlier work
# E. coli BAA-2452 [2] = settings: vendor MIC interpretation; cited from earlier work
# E. coli ATCC-25922 [3] = assay: On-chip paper-based antimicrobial susceptibility testing (AST), resazurin colorimetric readout; format: cell-based, Escherichia coli; settings: eight test zones: seven antibiotic concentrations plus no-antibiotic control; overnight 37° C.; 5×10^5 CFU/mL; hue threshold
# Excerpt: (§1) To functionalize the chips for AST, antibiotics and the growth-sensitive dye resazurin were pre-dried on the chip to enable testing with a single sample addition step. Antibiotics used consisted of ampicillin, meropenem, gentamicin, and ciprofloxacin (all sourced from MilliporeSigma). The growth-sensitive dye resazurin (PrestoBlue, Thermo Fisher) is a redox indicator that is reduced by metabolically active cells into resorufin, leading to significant colorimetric and fluorescent changes which provide a visual indication of bacterial growth as disclosed in Guerin, et al., “Application of resazurin for estimating abundance of contaminant-degrading micro-organisms,” Lett. Appl. […] Using a spectrophotometer (V-1200, VWR), the OD625 nm absorbance corresponding to a 0.5 McFarland standard was verified to be in the range of 0.08-0.13 22. […] To quantitatively analyze color change in the test zones following incubation, test chips were imaged using a smartphone and analyzed in MATLAB (MathWorks). Images were analyzed in the hue, saturation, value (HSV) color-space which we determined to be less sensitive to lighting conditions compared to the red, blue, green (RGB) color-space. For each test zone, the average hue value in a 160-pixel diameter circular region was calculated and a threshold was used to differentiate between zones with reduced (growth) and unreduced (no growth) resazurin. […]
# E. coli BAA-2452 [4] = assay: as above; format: cell-based, Escherichia coli; settings: eight test zones: seven antibiotic concentrations plus no-antibiotic control; overnight 37° C.; 5×10^5 CFU/mL; hue threshold
# Excerpt: as §1
smiles,measurement,setting,value
CC1(C)S[C@@H]2[C@H](NC(=O)[C@H](N)c3ccccc3)C(=O)N2[C@H]1C(=O)O [ampicillin],susceptibility category via off-chip AST,E. coli ATCC-25922 [1],susceptible
same,susceptibility category via off-chip AST,E. coli BAA-2452 [2],resistant
same,"number of positive test zones (reduced resazurin, uninhibited growth)",E. coli ATCC-25922 [3],no-antibiotic control positive only
same,"number of positive test zones (reduced resazurin, uninhibited growth)",E. coli BAA-2452 [4],six
